Reference: patent US12122767B2, “Bicyclic heterocycles as FGFR inhibitors” (Incyte Corporation, priority 2019, dated 2024)

target: T1, FGFR3 enzyme (Millipore) (Homo sapiens, UniProt P22607); assay: FGFR Enzymatic Assay (peptide phosphorylation, FRET); type: biochemical; settings: pre-incubated for 4 hours; ATP 140 μM, peptide 500 nM
T1 construct: purchased Millipore
Protocol: The inhibitor potency of the exemplified compounds was measured in an enzyme assay that measures peptide phosphorylation using FRET measurements to detect product formation. Inhibitors were serially diluted in DMSO and a volume of 0.5 μL was transferred to the wells of a 384-well plate. For FGFR3, a 10 μL volume of FGFR3 enzyme (Millipore) diluted in assay buffer (50 mM HEPES, 10 mM MgCl2, 1 mM EGTA, 0.01% Tween-20, 5 mM DTT, pH 7.5) was added to the plate and pre-incubated for a time between 5-10 minutes and up to 4 hours. Appropriate controls (enzyme blank and enzyme with no inhibitor) were included on the plate. The assay was initiated by the addition of a 10 μL solution containing biotinylated EQEDEPEGDYFEWLE peptide substrate (SEQ ID NO: 1) and ATP (final concentrations of 500 nM and 140 μM respectively) in assay buffer to the wells. The plate was incubated at 25° C. for 1 hr. The reactions were ended with the addition of 10 μL/well of quench solution (50 mM Tris, 150 mM NaCl, 0.5 mg/mL BSA, pH 7.8; 30 mM EDTA with Perkin Elmer Lance Reagents at 3.75 nM Eu-antibody PY20 and 180 nM APC-Streptavidin). The plate was allowed to equilibrate for ˜1 hr before scanning the wells on a PheraStar plate reader (BMG Labtech).
GraphPad prism3 was used to analyze the data. The IC50 values were derived by fitting the data to the equation for a sigmoidal dose-response with a variable slope. Y=Bottom+(Top-Bottom)/(1+10^((Log IC50−X)*HillSlope)) where X is the logarithm of concentration and Y is the response.
Table 1 provides IC50 data for compounds of the invention assayed in the FGFR Enzymatic Assay after dilution in assay buffer, added to the plate and pre-incubated for 4 hours.

T1 sequence (P22607 23-806): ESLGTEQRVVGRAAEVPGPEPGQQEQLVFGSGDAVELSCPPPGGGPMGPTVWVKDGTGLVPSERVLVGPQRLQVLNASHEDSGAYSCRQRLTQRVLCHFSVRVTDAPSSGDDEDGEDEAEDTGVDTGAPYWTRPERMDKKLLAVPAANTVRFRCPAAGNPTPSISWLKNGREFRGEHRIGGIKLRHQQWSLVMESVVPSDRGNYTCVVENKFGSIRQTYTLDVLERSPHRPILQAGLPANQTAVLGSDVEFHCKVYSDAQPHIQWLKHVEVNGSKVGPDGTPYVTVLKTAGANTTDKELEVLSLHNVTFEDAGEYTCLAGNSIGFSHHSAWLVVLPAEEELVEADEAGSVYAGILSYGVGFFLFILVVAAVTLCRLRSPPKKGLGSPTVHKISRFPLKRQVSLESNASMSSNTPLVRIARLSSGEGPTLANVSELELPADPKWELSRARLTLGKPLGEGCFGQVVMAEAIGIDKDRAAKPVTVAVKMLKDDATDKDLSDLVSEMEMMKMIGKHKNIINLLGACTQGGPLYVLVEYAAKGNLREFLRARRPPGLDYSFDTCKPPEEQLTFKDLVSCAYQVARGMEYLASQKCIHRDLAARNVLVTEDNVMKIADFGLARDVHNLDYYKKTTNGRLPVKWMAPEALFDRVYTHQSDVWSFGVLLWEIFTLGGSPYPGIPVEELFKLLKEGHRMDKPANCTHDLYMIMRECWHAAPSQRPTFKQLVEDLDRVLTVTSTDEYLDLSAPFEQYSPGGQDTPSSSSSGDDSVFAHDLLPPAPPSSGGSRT

`COc1cc2[nH]nc(-c3cnn(C4CN(C(C)=O)C4)c3)c2cc1C(=O)Nc1c(C)cccc1C` [Example 33, 3-(1-(1-Acetylazetidin-3-yl)-1H-pyrazol-4-yl)-N-(2,6-dimethylphenyl)-6-methoxy-1H-indazole-5-carboxamide] and `COc1cc2[nH]nc(-c3cnn(C4CC4)c3)c2cc1C(=O)Nc1c(C)cccc1C` [Example 44, 3-(1-Cyclopropyl-1H-pyrazol-4-yl)-N-(2,6-dimethylphenyl)-6-methoxy-1H-indazole-5-carboxamide] cannot be ordered by IC50: under 10 nM for the first, under 10 nM for the second.

`COc1cc2[nH]nc(-c3cnn(C4CCN(C)CC4)c3)c2cc1C(=O)Nc1c(C)cccc1C` [Example 34, N-(2,6-Dimethylphenyl)-6-methoxy-3-(1-(1-methylpiperidin-4-yl)-1H-pyrazol-4-yl)-1H-indazole-5-carboxamide] and `COc1cc2[nH]nc(-c3cnn(C4CCC4)c3)c2cc1C(=O)Nc1c(C)cccc1C` [Example 43, 3-(1-Cyclobutyl-1H-pyrazol-4-yl)-N-(2,6-dimethylphenyl)-6-methoxy-1H-indazole-5-carboxamide] cannot be ordered by IC50: under 10 nM for the first, under 10 nM for the second.

`COc1cc2[nH]nc(-c3cnn(C4CCOCC4)c3)c2cc1C(=O)Nc1c(C)cccc1C` [Example 35, N-(2,6-Dimethylphenyl)-6-methoxy-3-(1-(tetrahydro-2H-pyran-4-yl)-1H-pyrazol-4-yl)-1H-indazole-5-carboxamide] and `COc1cc2[nH]nc(-c3cnn(C4CCOC4)c3)c2cc1C(=O)Nc1c(C)cccc1C` (stereo not shown) [Example 36, N-(2,6-Dimethylphenyl)-6-methoxy-3-(1-(tetrahydrofuran-3-yl)-1H-pyrazol-4-yl)-1H-indazole-5-carboxamide] cannot be ordered by IC50: under 10 nM for the first, under 10 nM for the second.

First: COc1cc2[nH]nc(-c3cnn(Cc4ccccn4)c3)c2cc1C(=O)Nc1c(C)cccc1C [Example 37, N-(2,6-Dimethylphenyl)-6-methoxy-3-(1-(pyridin-2-ylmethyl)-1H-pyrazol-4-yl)-1H-indazole-5-carboxamide]
Second: COc1cc2[nH]nc(-c3cnn(-c4ccccn4)c3)c2cc1C(=O)Nc1c(C)cccc1C [Example 42, N-(2,6-Dimethylphenyl)-6-methoxy-3-(1-(pyridin-2-yl)-1H-pyrazol-4-yl)-1H-indazole-5-carboxamide]
The IC50 of the first is lower: under 10 nM for the first, 30 to 200 nM for the second. The first is the more potent here.

Compared with `COc1cc2[nH]nc(-c3cnn(CCO)c3)c2cc1C(=O)Nc1c(C)cccc1C` [Example 38, N-(2,6-Dimethylphenyl)-3-(1-(2-hydroxyethyl)-1H-pyrazol-4-yl)-6-methoxy-1H-indazole-5-carboxamide], `CCCn1cc(-c2n[nH]c3cc(OC)c(C(=O)Nc4c(C)cccc4C)cc23)cn1` [Example 45, N-(2,6-Dimethylphenyl)-6-methoxy-3-(1-propyl-1H-pyrazol-4-yl)-1H-indazole-5-carboxamide] is lower in IC50: 10 to 30 nM for the first, under 10 nM for the second.

`COc1cc2[nH]nc(-c3cnn(CC4CCNCC4)c3)c2cc1C(=O)Nc1c(C)cccc1C` [Example 39, N-(2,6-Dimethylphenyl)-6-methoxy-3-(1-(piperidin-4-ylmethyl)-1H-pyrazol-4-yl)-1H-indazole-5-carboxamide] and `COc1cc2[nH]nc(-c3cnn(CCN4CCOCC4)c3)c2cc1C(=O)Nc1c(C)cccc1C` [Example 40, N-(2,6-Dimethylphenyl)-6-methoxy-3-(1-(2-morpholinoethyl)-1H-pyrazol-4-yl)-1H-indazole-5-carboxamide] fall in the same range of IC50: 10 to 30 nM for the first, 10 to 30 nM for the second.

`COc1cc2[nH]nc(-c3cnn(Cc4cccnc4)c3)c2cc1C(=O)Nc1c(C)cccc1C` [Example 41, N-(2,6-Dimethylphenyl)-6-methoxy-3-(1-(pyridin-3-ylmethyl)-1H-pyrazol-4-yl)-1H-indazole-5-carboxamide] gave an IC50 of 10 to 30 nM.
